# Measurements as given in article PMC7354438 (Viruses, 2020).
# Where a name gives a salt, the structure may show the parent alone. Read-outs that look alike come from different tables or passages of the source.
# Tested on: hCoV-19/Norway/Trondheim-E9/2020
# Assay: Drug test: viability of SARS-CoV-2-infected Vero-E6 cells (CellTiter-Glo)
# Type: cell-based
# Set-up: AUC: unit not given beside the values
# [1] = area under the dose-response curve of viability of virus-infected Vero-E6 cells, moi 0.1, 72 h, 7 concentrations, decimal comma
Molecule,AUC [1],further results
O=C(/C=C\n1cnc(-c2cc(C(F)(F)F)cc(C(F)(F)F)c2)n1)NNc1ccccn1 [Verdinexor],"83,93",
CN1[C@@H]2CC[C@H]1C[C@@H](OC(c1ccccc1)c1ccccc1)C2 [Benzatropine],"208,11",
C[C@@H]1O[C@@H](O[C@H]2C[C@@H](O)[C@]3(CO)[C@H]4[C@H](O)C[C@]5(C)[C@@H](C6=CC(=O)OC6)CC[C@]5(O)[C@@H]4CC[C@]3(O)C2)[C@H](O)[C@H](O)[C@H]1O [Ouabain octahydrate],,"AUC (72 h): 41,93"
CC(C)(C)c1cnc(CSc2cnc(NC(=O)C3CCNCC3)s2)o1 [SNS-032],"96,25",
Pentosan polysulfate,,"AUC (72 h): 123,06"
"NC(=O)c1nc(F)c[nH]c1=O [Favipiravir (T-705), Favipiravir]","136,64",
CC(C)n1c(/C=C/C(O)CC(O)CC(=O)O)c(-c2ccc(F)cc2)c2ccccc21 (centres unmarked) [Fluvastatin],"154,14",
Chicoric acid,,"AUC (72 h): 93,1"
N=C(N)NC(=O)c1nc(Cl)c(N)nc1N [Amiloride (EIPA)],"182,56",
CC(C)C(=O)OCC(=O)[C@@]12O[C@H](C3CCCCC3)O[C@@H]1C[C@H]1[C@@H]3CCC4=CC(=O)C=C[C@]4(C)[C@H]3[C@@H](O)C[C@@]12C [Ciclesonide],"157,15",
C/C(O)=C(\C#N)C(=O)Nc1ccc(C(F)(F)F)cc1 [Teriflunomide],"72,87",
Cc1cc(CCCOc2c(C)cc(-c3noc(C(F)(F)F)n3)cc2C)on1 [Pleconaril],"141,75",
CCCCCCCCCCNCCN[C@@]1(C)C[C@H](O[C@H]2[C@H](Oc3c4cc5cc3Oc3ccc(cc3Cl)[C@@H](O)[C@@H](NC(=O)[C@@H](CC(C)C)NC)C(=O)N[C@@H](CC(N)=O)C(=O)N[C@H]5C(=O)N[C@H]3C(=O)N[C@H](C(=O)N[C@H](C(=O)O)c5cc(O)c(CNCP(=O)(O)O)c(O)c5-c5cc3ccc5O)[C@H](O)c3ccc(c(Cl)c3)O4)O[C@H](CO)[C@@H](O)[C@@H]2O)O[C@@H](C)[C@H]1O [Telavancin],,"AUC (72 h): 139,65"
CN(C)CCOc1ccc(/C(=C(/CCCl)c2ccccc2)c2ccccc2)cc1 [Toremifene],"27,02",
N=C(N)c1ccc2cc(OC(=O)c3ccc(N=C(N)N)cc3)ccc2c1 [Nafamostat],,"AUC (72 h): 166,53"
"CC(C)OC(=O)[C@H](C)N[P@](=O)(OC[C@H]1O[C@@H](n2ccc(=O)[nH]c2=O)[C@](C)(F)[C@@H]1O)Oc1ccccc1 [PSI-7977 (Sofosbuvir), Sofosbuvir]",,"AUC (72 h): 131,11"
O=c1cc(-c2ccc(O)c(O)c2)oc2cc(O)cc(O)c12 [Luteolin],"119,07",
O=c1[nH]c(=O)n([C@H]2C[C@H](O)[C@@H](CO)O2)cc1C(F)(F)F [Trifluridine],"107,17",
C[C@]12Cc3c[nH]nc3C[C@@H]1CC[C@@H]1[C@@H]2CC[C@@]2(C)[C@H]1CC[C@]2(C)O [Stanozolol],,"AUC (72 h): 161,7"
Oc1c(Cl)cc(Cl)c(Cl)c1Cc1c(O)c(Cl)cc(Cl)c1Cl [Hexachlorophene],,"AUC (72 h): 122,15"
COc1cccc(N2CCN(C3=Nc4c(F)cccc4[C@H](CC(=O)O)N3c3cc(C(F)(F)F)ccc3OC)CC2)c1 [Letermovir],"134,12",
O=C1O[C@H]([C@@H](O)CO)C(O)=C1O [Ascorbic acid],"108,5",
COc1c(C)c2c(c(O)c1C/C=C(\C)CCC(=O)O)C(=O)OC2 [Mycophenolic acid],"103,74",

Molecule,AUC [1],further results
Nc1nc(Cl)nc2c1ncn2[C@@H]1O[C@H](CO)[C@@H](O)[C@@H]1F [Clofarabine],"112,42",
"CCCCCCCCCCCCCCCCOCCCOP(=O)(O)CO[C@H](CO)Cn1ccc(N)nc1=O [Brincidofovir (CMX001), Brincidofovir]","126,49",
"CN(C)C(=N)N=C(N)N [Metformin (1,1-Dimethylbiguanide), 1,1-Dimethylbiguanide]","116,76",
CNCCC(Oc1ccc(C(F)(F)F)cc1)c1ccccc1 (centres unmarked) [Fluoxetine],"104,37",
"CC(C)C[C@H](NC(=O)[C@H](Cc1ccccc1)NC(=O)c1cnccn1)B(O)O [Bortezomib (PS-341), Bortezomib]","68,67",
CO[C@@H]1[C@@H](OC(N)=O)[C@@H](O)[C@H](Oc2ccc3c(O)c(NC(=O)c4ccc(O)c(CC=C(C)C)c4)c(=O)oc3c2C)OC1(C)C [Novobiocin],"100,73",
CCC(C)(C)C(=O)O[C@H]1C[C@@H](C)C=C2C=C[C@H](C)[C@H](CC[C@@H]3C[C@@H](O)CC(=O)O3)[C@H]21 [Simvastatin],"163,03",
Teicoplanin,,"AUC (72 h): 145,39"
CN1CCC[C@H]1c1cccnc1 [nicotine],,AUC: 239; rescue of cells from virus-mediated death: rescued cells from virus-mediated death but altered the cell morphology
CN(C)c1ccc(O)c2c1C[C@H]1C[C@H]3[C@H](N(C)C)C(O)=C(C(N)=O)C(=O)[C@@]3(O)C(O)=C1C2=O [Minocycline],"119,14",
COc1ccc2c(c1)c(CC(=O)O)c(C)n2C(=O)c1ccc(Cl)cc1 [Indomethacin],"104,51",
CC[C@H](C)C(=O)O[C@H]1C[C@@H](C)C=C2C=C[C@H](C)[C@H](CC[C@@H]3C[C@@H](O)CC(=O)O3)[C@H]21 [Lovastatin],"204,26",
"NCCCC(N)(C(=O)O)C(F)F (centres unmarked) [DFMO (Difluoromethylomithine), Difluoromethylomithine]",,"AUC (72 h): 142,66"
Nc1ccn([C@@H]2O[C@H](CO)[C@@H](O)C2(F)F)c(=O)n1 [Gemcitabine],"92,89",
"Cn1c(=O)c2c(ncn2CC(O)CO)n(C)c1=O (centres unmarked) [7-(2,3-Dihydroxypropyl)theophylline]",,"AUC (72 h): 195,44"
CC(C)C[C@H]1C(=O)N2CCC[C@H]2[C@]2(O)O[C@](NC(=O)[C@@H]3C=C4c5cccc6[nH]c(Br)c(c56)C[C@H]4N(C)C3)(C(C)C)C(=O)N12.CS(=O)(=O)O [Bromcriptine mesilate],,"AUC (72 h): 59,71"
"CC1=C(/C=C/C(C)=C/C=C/C(C)=C/C(=O)Nc2ccc(O)cc2)C(C)(C)CCC1 [Fenretinide (4-HPR), Fenretinide]","137,9",
CC(C)c1nc(CN(C)C(=O)N[C@H](C(=O)N[C@@H](Cc2ccccc2)C[C@H](O)[C@H](Cc2ccccc2)NC(=O)OCc2cncs2)C(C)C)cs1 [Ritonavir],"137,69",
CC(C)C[C@H]1C(=O)N2CCC[C@H]2[C@]2(O)O[C@](NC(=O)[C@@H]3C=C4c5cccc6[nH]c(Br)c(c56)C[C@H]4N(C)C3)(C(C)C)C(=O)N12 [Bromocriptine],,"AUC (72 h): 164,57"
CCN(CC)C[C@@H](O)CNc1ccc(NC[C@H]2CO2)c2c1C(=O)c1ccccc1C2=O [BDA-366],,"AUC (72 h): 174,3"
COc1ccc(CC(C)NCC(O)c2ccc(O)c(NC=O)c2)cc1 (centres unmarked) [Formoterol],,"AUC (72 h): 203,77"
Cc1cccc(C)c1OCC(=O)N[C@@H](Cc1ccccc1)[C@@H](O)C[C@H](Cc1ccccc1)NC(=O)[C@H](C(C)C)N1CCCNC1=O [Lopinavir],"157,36",
Cc1nc(Nc2ncc(C(=O)Nc3c(C)cccc3Cl)s2)cc(N2CCN(CCO)CC2)n1 [Dasatinib],"135,45",

Molecule,AUC [1],further results
COc1cc2ncnc(Nc3ccc(F)c(Cl)c3)c2cc1OCCCN1CCOCC1 [Gefitinib],"188,86",
COc1ccc2[nH]c([S+]([O-])Cc3ncc(C)c(OC)c3C)nc2c1 (centres unmarked) [Omeprazole],"139,02",
Cc1ccc(C(=O)Nc2ccc(S(=O)(=O)O)c3cc(S(=O)(=O)O)cc(S(=O)(=O)O)c23)cc1NC(=O)c1cccc(NC(=O)Nc2cccc(C(=O)Nc3cc(C(=O)Nc4ccc(S(=O)(=O)O)c5cc(S(=O)(=O)O)cc(S(=O)(=O)O)c45)ccc3C)c2)c1 [Suramin],,"AUC (72 h): 94,57"
CNC(=O)c1cc(Oc2ccc(NC(=O)Nc3ccc(Cl)c(C(F)(F)F)c3)c(F)c2)ccn1 [Regorafenib],"24,12",
C[C@H]1O[C@@H](O[C@H]2CC[C@@]3(C)[C@@H](CC[C@]4(C)[C@@H]3C=C[C@]35OC[C@@]6(CCC(C)(C)C[C@H]63)[C@@H](O)C[C@]54C)[C@]2(C)CO)[C@H](O)[C@@H](O[C@@H]2O[C@H](CO)[C@@H](O)[C@H](O)[C@H]2O)[C@H]1O [Saikosaponin A],,AUC (72 h): 77
Cc1c(-c2ccc(-c3ccccc3F)cc2)nc2ccc(F)cc2c1C(=O)O [Brequinar],"260,54",
Cc1cc(O)c2c(c1)C(=O)c1cc(O)cc(O)c1C2=O [Emodin],,"AUC (72 h): 170,24"
CC/C(=C(\c1ccccc1)c1ccc(OCCN(C)C)cc1)c1ccccc1 [Tamoxifen],"54,67",
"CC1(C)[C@@H](O[C@H]2O[C@H](C(=O)O)[C@@H](O)[C@H](O)[C@H]2O[C@@H]2O[C@H](C(=O)O)[C@@H](O)[C@H](O)[C@H]2O)CC[C@]2(C)[C@H]3C(=O)C=C4[C@@H]5C[C@@](C)(C(=O)O)CC[C@]5(C)CC[C@@]4(C)[C@]3(C)CC[C@@H]12 [Glycyrrhizic acid (Glycyrrhizin), Glycyrrhizic acid]",,"AUC (72 h): 235,76"
CC(=O)N[C@H]1[C@H]([C@H](O)[C@H](O)CO)OC(C(=O)O)=C[C@@H]1N=C(N)N [Zanamivir],"113,54",
CC(=O)N[C@@H](CS)C(=O)O [Acetylcysteine],"43,47",
Cn1c(=O)c2c(ncn2C)n(C)c1=O [Caffeine],"147,28",
CC[C@H]1OC(=O)[C@H](C)[C@@H](O[C@H]2C[C@@](C)(OC)[C@@H](O)[C@H](C)O2)[C@H](C)[C@@H](O[C@@H]2O[C@H](C)C[C@H](N(C)C)[C@H]2O)[C@](C)(O)C[C@@H](C)CN(C)[C@H](C)[C@@H](O)[C@]1(C)O [Azithromycin],"119,42",
CC(=O)Oc1ccccc1C(=O)Nc1ncc([N+](=O)[O-])s1 [Nitazoxanide],"120,33",
C#Cc1cccc(Nc2ncnc3cc(OCCOC)c(OCCOC)cc23)c1 [Erlotinib],"103,46",
CN(C)CCCN1c2ccccc2Sc2ccc(Cl)cc21 [Chlorpromazine hydrochloride],"86,52",
Nc1nc(=O)c2ncn([C@@H]3C[C@H](CO)[C@H]3CO)c2[nH]1 [Lobucavir],"153,65",
O=C1c2c(O)ccc(O)c2C(=O)c2c(NCCNCCO)ccc(NCCNCCO)c21 [Mitoxantrone],"125,09",
Abamectin,,"AUC (72 h): 151,97"
O=C(c1ccc(OCCN2CCCCC2)cc1)c1c(-c2ccc(O)cc2)sc2cc(O)ccc12 [Raloxifene],"199,57",
CC(C)Nc1nc2cc(Cl)c(Cl)cc2n1[C@H]1O[C@@H](CO)[C@H](O)[C@@H]1O [Maribavir],"145,81",
